Laboratory results published in paper PMC5924614 (European journal of medicinal chemistry, 2018).

Experiments:
[1] = tested on: STAT3 tyrosine 705 (Y705) phosphorylation; assay: STAT3 Y705 phosphorylation in SU-DHL-1 cells by western blot; format: cell-based, human; conditions: for inhibition at 0.1 µM: Homo sapiens, SU-DHL-1, read-out: inhibition of STAT3 Y705 phosphorylation; for treatment time after which p-STAT3 was significantly inhibited: SU-DHL-1 cells, 30 nM, time course
NPM-ALK fusion protein = NPM-ALK fusion protein (Homo sapiens, UniProt P06748+Q9UM73); assay: NPM-ALK fusion protein levels in SU-DHL-1 cells by western blot; format: cell-based; conditions: for duration of NPM-ALK degradation and ALK signaling inhibition / time at which significant (>50%) NPM-ALK degradation was achieved / time of maximum degradation of NPM-ALK / effect on fused ALK (NPM-ALK) protein levels: 30 nM; for duration of NPM-ALK degradation and ALK signaling inhibition / time at which significant (>50%) NPM-ALK degradation was achieved / time of maximum degradation of NPM-ALK: time course; for reduction of the ALK fusion protein levels: 100 nM; for reduction of the ALK fusion protein levels / effect on fused ALK (NPM-ALK) protein levels: 16 h; for hook effect: up to 100 nM degrader
SU-DHL-1 cells [2] = assay: cell death / toxicity observed in SU-DHL-1 cells during blot experiments; format: cell-based
[3] = tested on: EML4-ALK fusion protein variant 3; conditions: NCI-H2228 cells; for duration of EML4-ALK degradation and signaling pathway inhibition / time of maximum degradation of EML4-ALK: 60 nM, time course; for reduction of EML4-ALK protein levels / effect on EML4-ALK protein levels: 100 nM, 16 h
[4] = tested on: ALK tyrosine 1507 (Y1507) phosphorylation (Y527 in NPM-ALK); assay: ALK Y1507 phosphorylation in SU-DHL-1 cells by western blot; format: cell-based, human; conditions: for inhibition at 0.1 µM: Homo sapiens, read-out: inhibition of ALK Y1507 phosphorylation; for treatment time after which p-ALK was significantly inhibited: SU-DHL-1 cells, 30 nM, time course
NCI-H2228 cells = assay: NCI-H2228 cell proliferation, CellTiter-Glo cell viability assay; format: cell-based, human
[5] = tolerability in the mouse PK study; conditions: 50 mg/kg IP
mouse pharmacokinetic = format: in vivo, male Swiss Albino mice; conditions: single 50 mg/kg IP
[6] = tested on: ALK downstream signaling (p-ALK, p-STAT3); assay: ALK downstream signaling pathway inhibition in SU-DHL-1 cells by western blot; format: cell-based, human; conditions: 30 nM
SU-DHL-1 cells [7] = assay: SU-DHL-1 cell proliferation, CellTiter-Glo luminescent cell viability assay; format: cell-based, human; conditions: 3 days

Compound | inhibition at 0.1 µM [1] [%] | treatment time after which p-STAT3 was significantly inhibited [1] [h] | duration of NPM-ALK degradation and ALK signaling inhibition (NPM-ALK fusion protein) | time at which significant (>50%) NPM-ALK degradation was achieved (NPM-ALK fusion protein) [h] | time of maximum degradation of NPM-ALK (NPM-ALK fusion protein) [h] | reduction of the ALK fusion protein levels (NPM-ALK fusion protein) | hook effect (NPM-ALK fusion protein) | concentrations leading to significant cell death / toxic to cells (SU-DHL-1 cells [2]) | duration of EML4-ALK degradation and signaling pathway inhibition [3] | time of maximum degradation of EML4-ALK [3] [h] | reduction of EML4-ALK protein levels [3] | inhibition at 0.1 µM [4] [%] | treatment time after which p-ALK was significantly inhibited [4] [h] | sensitivity of proliferation in comparison with SU-DHL-1 cells (NCI-H2228 cells) | effect on fused ALK (NPM-ALK) protein levels (NPM-ALK fusion protein) | effect on EML4-ALK protein levels [3] | fold less active than corresponding degrader in signaling pathway inhibition [6] | cell growth inhibition (SU-DHL-1 cells [7]) | other results
Cc1cc(Nc2ncc(Cl)c(Nc3ccccc3S(=O)(=O)C(C)C)n2)c(OC(C)C)cc1C1CCN(CC(=O)NCCOCCOCCOCCOCCOCCNc2cccc3c2C(=O)N(C2CCC(=O)NC2=O)C3=O)CC1 (stereo not shown) [Compound 5, 2-(4-(4-((5-Chloro-4-((2-(isopropylsulfonyl)phenyl)amino)pyrimidin-2-yl)amino)-5-isopropoxy-2-methylphenyl)piperidin-1-yl)-N-(17-((2-(2,6-dioxopiperidin-3-yl)-1,3-dioxoisoindolin-4-yl)amino)-3,6,9,12,15-pentaoxaheptadecyl)acetamide] | > 90 | 2 | at least 24 hours | 4 | 16 | Over 90% | did not observe the “hook effect” | above 100 nM | at least 24 hours | 16 | Over 90% | > 90 | 2 | less sensitive | – | – | – | – | –
Cc1cc(Nc2ncc(Cl)c(Nc3ccccc3S(=O)(=O)C(C)C)n2)c(OC(C)C)cc1C1CCN(CC(=O)NCCNc2cccc3c2C(=O)N(C2CCC(=O)NC2=O)C3=O)CC1 (stereo not shown) [Compound 6, 2-(4-(4-((5-chloro-4-((2-(isopropylsulfonyl)phenyl)amino)pyrimidin-2-yl)amino)-5-isopropoxy-2-methylphenyl)piperidin-1-yl)-N-(2-((2-(2,6-dioxopiperidin-3-yl)-1,3-dioxoisoindolin-4-yl)amino)ethyl)acetamide] | > 90 | 2 | at least 24 hours | 4 | 16 | Over 90% | did not observe the “hook effect” | above 100 nM | at least 24 hours | 16 | Over 90% | > 90 | 2 | less sensitive | – | – | – | – | clinical signs [5]: no clinical signs were observed; tolerability [5]: well tolerated; highest plasma concentration (mouse pharmacokinetic): 3,000 nM; time of highest plasma concentration post dosing (mouse pharmacokinetic): 2 h
Cc1cc(Nc2ncc(Cl)c(Nc3ccccc3S(=O)(=O)C(C)C)n2)c(OC(C)C)cc1C1CCN(CC(=O)NCCOCCOCCOCCOCCOCCNc2cccc3c2C(=O)N(C2CCC(=O)N(C)C2=O)C3=O)CC1 (stereo not shown) [Compound 7, 2-(4-(4-((5-Chloro-4-((2-(isopropylsulfonyl)phenyl)amino)pyrimidin-2-yl)amino)-5-isopropoxy-2-methylphenyl)piperidin-1-yl)-N-(17-((2-(1-methyl-2,6-dioxopiperidin-3-yl)-1,3-dioxoisoindolin-4-yl)amino)-3,6,9,12,15-pentaoxaheptadecyl)acetamide] | – | – | – | – | – | – | – | – | – | – | – | – | – | less sensitive | did not reduce | did not significantly affect | over 10 fold | incomplete inhibition | –
Cc1cc(Nc2ncc(Cl)c(Nc3ccccc3S(=O)(=O)C(C)C)n2)c(OC(C)C)cc1C1CCN(CC(=O)NCCNc2cccc3c2C(=O)N(C2CCC(=O)N(C)C2=O)C3=O)CC1 (stereo not shown) [Compound 8, 2-(4-(4-((5-chloro-4-((2-(isopropylsulfonyl)phenyl)amino)pyrimidin-2-yl)amino)-5-isopropoxy-2-methylphenyl)piperidin-1-yl)-N-(2-((2-(1-methyl-2,6-dioxopiperidin-3-yl)-1,3-dioxoisoindolin-4-yl)amino)ethyl)acetamide] | – | – | – | – | – | – | – | – | – | – | – | – | – | less sensitive | did not reduce | did not significantly affect | over 10 fold | incomplete inhibition | –
Cc1cc(Nc2ncc(Cl)c(Nc3ccccc3S(=O)(=O)C(C)C)n2)c(OC(C)C)cc1C1CCNCC1 [ceritinib, reference compound] | – | – | – | – | – | – | – | above 100 nM | – | – | – | – | – | – | did not significantly change | did not significantly affect | – | – | inhibition of downstream signaling compared with the degraders [6]: more potent
